Laboratory results published in patent US20100041892A1, “Therapeutic agent for diabetes” (priority 2005, published 2010).
Where two headings read alike, the source gives them in different places.

Tests used:
[1] = system: KKAy mice; assay: Blood glucose and blood lipid (triglyceride) lowering action in mice; assay type: in vivo; details: Mus musculus, 4TO7, po, 4 to 7 days; for response vs control in vivo at 0.03 %: 0.03% in powder diet; for response vs control in vivo at 0.005 %: 0.005% in powder diet; for response vs control in vivo at 0.01 %: 0.01% in powder diet
From the text: The test compound was mixed with a powder diet (CE-2, CLEA JAPAN, INC.) at a proportion of 0.01% (0.03% for the compounds of Examples 1, 2, 12, 81, 94, 96, 129 and 143, and 0.005% for the compounds of Examples 28, 30 and 37) and freely given to KKAy mice (9 to 14-week-old, 5 mice per group) which are obesity non-insulin-dependent diabetes (type-2 diabetes) models, for 4 to 7 days. During this period, water was freely given. The blood was drawn from the orbital venous plexus. Glucose and triglyceride in the plasma separated from the blood were quantitated using L Type Wako Glu2 (Wako Pure Chemical Industries, Ltd.) and L Type Wako TG·H (Wako Pure Chemical Industries, Ltd.), respectively, according to an enzyme method.

[2] = molecular target: T1, PPARγ-RXRα heterodimer (Homo sapiens, UniProt P37231); assay: PPARγ-RXRα heterodimer ligand activity (luciferase reporter, PPARγ:RXRα:4ERPP/CHO-K1 cells); assay type: cell-based; details: concentration showing 50% of the maximum luciferase induction rate; CHO-K1 reporter cells, one day incubation
T1 construct: expressed in transfected cells; host or cells: CHO-K1 (PPARγ:RXRα:4ERPP/CHO-K1)
T1 sequence (P37231 1-477 isoform P37231-2): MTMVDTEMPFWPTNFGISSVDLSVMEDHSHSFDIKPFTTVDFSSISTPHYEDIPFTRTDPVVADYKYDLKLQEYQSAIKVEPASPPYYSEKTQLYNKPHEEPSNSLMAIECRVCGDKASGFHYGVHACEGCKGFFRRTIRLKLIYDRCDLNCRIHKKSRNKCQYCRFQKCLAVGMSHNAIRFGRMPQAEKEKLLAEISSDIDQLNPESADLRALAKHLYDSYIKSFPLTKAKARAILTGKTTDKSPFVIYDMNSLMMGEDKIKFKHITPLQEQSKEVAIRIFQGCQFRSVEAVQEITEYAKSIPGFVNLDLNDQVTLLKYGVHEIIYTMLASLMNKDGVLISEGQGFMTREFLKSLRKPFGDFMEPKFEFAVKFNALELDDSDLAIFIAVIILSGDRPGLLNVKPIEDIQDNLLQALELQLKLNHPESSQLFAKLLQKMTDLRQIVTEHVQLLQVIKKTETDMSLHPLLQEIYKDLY
T1 sequence (P19793 1-462 partner): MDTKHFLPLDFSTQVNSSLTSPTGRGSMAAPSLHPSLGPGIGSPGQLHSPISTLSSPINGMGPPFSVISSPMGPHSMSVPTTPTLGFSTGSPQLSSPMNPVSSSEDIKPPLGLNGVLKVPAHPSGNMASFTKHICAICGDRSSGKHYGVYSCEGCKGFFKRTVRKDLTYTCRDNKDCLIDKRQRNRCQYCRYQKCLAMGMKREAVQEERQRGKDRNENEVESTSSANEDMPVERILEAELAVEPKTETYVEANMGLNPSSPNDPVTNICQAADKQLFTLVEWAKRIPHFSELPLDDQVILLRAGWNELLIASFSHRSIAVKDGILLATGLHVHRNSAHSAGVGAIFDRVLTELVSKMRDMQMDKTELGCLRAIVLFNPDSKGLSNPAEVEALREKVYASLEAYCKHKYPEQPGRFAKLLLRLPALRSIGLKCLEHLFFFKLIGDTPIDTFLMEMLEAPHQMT
Protocol: The PPARγ:RXRα:4ERPP/CHO-K1 cells described in WO03/099793 were cultured in a Ham F12 medium [manufactured by Life Technologies, Inc., US] containing 10% calf fetal serum [manufactured by Life Technologies, Inc., US], sown in a 96-well white plate (manufactured by Corning Coster Corporation, US] at 1×10^4 cells/well, and incubated overnight in a carbon dioxide gas incubator at 37° C.
Then, the medium was removed from the 96 well white plate, 45 μl of Ham F12-medium containing 0.1% fatty acid-free bovine serum albumin (BSA) and a test compound (5 μl) were added, and the cells were incubated for one day in a carbon dioxide gas incubator at 37° C. The medium was removed, 20 μl of PicaGene 7.5 (manufactured by Wako Pure Chemical Industries, Ltd.) 2-fold diluted with HBSS (HANKS' BALANCED SALT SOLUTION) [manufactured by BIO WHITTAKER, US] was added. After stirring, the luciferase activity was determined using the 1420 ARVO Multilabel Counter [manufactured by PerkinElmer, US].
The induction rate was calculated from the luciferase activity of each test compound based on the luciferase activity of the test compound non-administration group as 1. The test compound concentration and the induction rate were analyzed by PRISM [manufactured by GraphPad Software, Inc., US] to calculate EC50 value (compound concentration showing 50% of the maximum value of induction rate) of the test compound.

[3] = plasma glucose relative to non-administration group = 100%, read-out: hypoglycemic action (%)
[4] = plasma triglyceride relative to non-administration group = 100%, read-out: hypolipidemic action (%)

Compound	response vs control in vivo at 0.03 % [1, 3] [%]	response vs control in vivo at 0.03 % [1, 4] [%]	EC50 [2] [nM]	response vs control in vivo at 0.005 % [1, 3] [%]	response vs control in vivo at 0.005 % [1, 4] [%]	response vs control in vivo at 0.01 % [1, 3] [%]	response vs control in vivo at 0.01 % [1, 4] [%]	melting point [°C]
CCCCCS(=O)(=O)NC(=O)CCc1ccc(OCCOC)cc1Oc1ncc(C(F)(F)F)cc1Cl [Example 1, 3-[2-{[3-chloro-5-(trifluoromethyl)pyridin-2-yl]oxy}-4-(2-methoxyethoxy)phenyl]-N-(pentylsulfonyl)propanamide]	47	53	1.5					
CCCCCS(=O)(=O)NC(=O)CCc1ccc(OC(C)C)cc1Oc1ncc(C(F)(F)F)cc1Cl [Example 2, 3-(2-{[3-chloro-5-(trifluoromethyl)pyridin-2-yl]oxy}-4-isopropoxyphenyl)-N-(pentylsulfonyl)propanamide]	50	41	2.6					
CCCCCS(=O)(=O)NC(=O)/C=C/c1ccc(OCCOC)cc1Oc1ncc(C(F)(F)F)cc1Cl [Example 12, (2E)-3-[2-{[3-chloro-5-(trifluoromethyl)pyridin-2-yl]oxy}-4-(2-methoxyethoxy)phenyl]-N-(pentylsulfonyl)acrylamide]	46	43	15					
CCCCCS(=O)(=O)NC(=O)OCCCc1ccc(OCCOC)cc1Oc1ncc(C(F)(F)F)cc1Cl [Example 28, 3-[2-{[3-chloro-5-(trifluoromethyl)pyridin-2-yl]oxy}-4-(2-methoxyethoxy)phenyl]propyl (pentylsulfonyl)carbamate]			4.5	52	32			
COCCOc1ccc(CCCOC(=O)NS(=O)(=O)c2ccc(C)cc2)c(Oc2ncc(C(F)(F)F)cc2Cl)c1 [Example 30, 3-[2-{[3-chloro-5-(trifluoromethyl)pyridin-2-yl]oxy}-4-(2-methoxyethoxy)phenyl]propyl [(4-methylphenyl)sulfonyl]carbamate monohydrate]			3.8	47	57			
COCCOc1ccc(/C=C/COC(=O)NS(=O)(=O)c2ccc(Cl)cc2)c(Oc2ncc(C(F)(F)F)cc2Cl)c1 [Example 37, (2E)-3-[2-{[3-chloro-5-(trifluoromethyl)pyridin-2-yl]oxy}-4-(2-methoxyethoxy)phenyl]-2-propen-1-yl [(4-chlorophenyl)sulfonyl]carbamate dihydrate]			21	68	70			
CCCCCS(=O)(=O)NC(=O)OCc1ccc(OCCOC)cc1Oc1ncc(C(F)(F)F)cc1Cl [Example 58, 2-{[3-chloro-5-(trifluoromethyl)pyridin-2-yl]oxy}-4-(2-methoxyethoxy)benzyl (pentylsulfonyl)carbamate]			10			64	73	
CCCCCS(=O)(=O)NC(=O)CCc1cc(OC(C)C)nn1Cc1ccc(Cl)cc1Cl [Example 81, 3-[1-(2,4-dichlorobenzyl)-3-isopropoxy-1H-pyrazol-5-yl]-N-(pentylsulfonyl)propanamide]	44	60	16					
CCCCCS(=O)(=O)NC(=O)/C=C/c1cc(OC(C)C)nn1Cc1ccc(Cl)cc1Cl [Example 94, (2E)-3-[1-(2,4-dichlorobenzyl)-3-isopropoxy-1H-pyrazol-5-yl]-N-(pentylsulfonyl)acrylamide]	48	79	20					
CCCCCS(=O)(=O)NC(=O)CCc1cc(C(C)C)nn1Cc1ccc(C(F)(F)F)cc1Cl [Example 96, 3-(1-[2-chloro-4-(trifluoromethyl)benzyl]-3-isopropyl-1H-pyrazol-5-yl)-N-(pentylsulfonyl)propanamide]	53	57	8.4					
CC(C)CCS(=O)(=O)NC(=O)/C=C/c1cc(OC(C)C)nn1Cc1ccc(C(F)(F)F)cc1Cl [Example 112, (2E)-3-{1-[2-chloro-4-(trifluoromethyl)benzyl]-3-isopropoxy-1H-pyrazol-5-yl}-N-[(3-methylbutyl)sulfonyl]acrylamide]			8.3			53	70	
CCCCCS(=O)(=O)NC(=O)/C=C/c1cc(C2CC2)nn1Cc1ccc(C(F)(F)F)cc1Cl [Example 155, (2E)-3-{1-[2-chloro-4-(trifluoromethyl)benzyl]-3-cyclopropyl-1H-pyrazol-5-yl}-N-(pentylsulfonyl)acrylamide]			12			70	70	
COCCOc1ccc(CCCOC(=O)NS(=O)(=O)NCCOC(C)C)c(Oc2ncc(C(F)(F)F)cc2Cl)c1 [Example 204, 3-[2-{[3-chloro-5-(trifluoromethyl)pyridin-2-yl]oxy}-4-(2-methoxyethoxy)phenyl]propyl {[(2-isopropoxyethyl)amino]sulfonyl}carbamate]			0.92			52	36	
CCCCCS(=O)(=O)NC(=O)CCc1ccc(OCCOCCOC)cc1Oc1ncc(C(F)(F)F)cc1Cl [Example 257, 3-{2-{[3-chloro-5-(trifluoromethyl)pyridin-2-yl]oxy}-4-[2-(2-methoxyethoxy)ethoxy]phenyl}-N-(pentylsulfonyl)propanamide]			2.1					76 to 77.5
CCCCCS(=O)(=O)NC(=O)CCc1ccc(OCCCOC)cc1Oc1ncc(C(F)(F)F)cc1Cl [Example 258, 3-[2-{[3-chloro-5-(trifluoromethyl)pyridin-2-yl]oxy}-4-(3-methoxypropoxy)phenyl]-N-(pentylsulfonyl)propanamide]			1.1					115 to 115.2
CCCCCS(=O)(=O)NC(=O)/C=C/c1ccc(OCCC2(C)OCCO2)cc1Oc1ncc(C(F)(F)F)cc1Cl [Example 453, (2E)-3-{2-{[3-chloro-5-(trifluoromethyl)pyridin-2-yl]oxy}-4-[2-(2-methyl-1,3-dioxolan-2-yl)ethoxy]phenyl}-N-(pentylsulfonyl)acrylamide]			7.3					90 to 92
